Results: patent JP2017105729A, “ミトコンドリア病の治療剤” (Tohoku University NUC, priority 2015, dated 2017)

Key:
[1] = test system: mitochondrial encephalomyopathy patients [ミトコンドリア脳筋症患者]; conditions: cited from earlier work
[2] = test system: erythropoietin, human liver cancer cell line Hep3B [エリスロポエチン産生ヒト肝臓癌細胞株Hep3B]; assay: Erythropoietin production in Hep3B cells in the presence of TNFα (ELISA); assay type: cell-based; conditions: compound 3 μM with TNFα 220 μg/mL, 24 h, 20% O2; relative to DMSO; Fig. 2
[3] = test system: Leber disease patient-derived fibroblasts [Leber病患者由来線維芽細胞]; assay: Suppression of oxidative-stress (BSO) induced cell death of Leber disease patient fibroblasts: cell viability (MTT assay, Cell Counting Kit-8); assay type: cell-based; conditions: for minimal effective concentration: Fibroblast, BSO 100 μM 24 h, then compound (0.1, 0.3, 1, 3, 10 μM) 48 h, n=4, Fig. 1B, read-out: concentration at which the decrease in cell viability is suppressed
[4] = test system: erythropoietin [エリスロポエチン]; conditions: reported in Patent Literature 2; cited from earlier work
[5] = test system: Leber disease patient-derived fibroblasts [Leber病患者由来線維芽細胞]; assay: Suppression of cytotoxicity in BSO-treated Leber disease patient fibroblasts: released LDH activity (Cytotoxicity LDH Assay Kit-WST); assay type: cell-based; conditions: BSO 100 μM 24 h, then compound (0.1, 0.3, 1, 3, 10 μM) 48 h, n=4; LDH release; Fig. 1C
[6] = test system: mitochondrial disease [ミトコンドリア病]; conditions: reported in Patent Literature 2; cited from earlier work

For `CC1=NN(c2ccccc2)C(=O)C1` [エダラボン, 3−メチル−1−フェニル−2−ピラゾリン−5−オン], the “effect of stopping enlargement of infarct” value [1] is listed as “梗塞の拡大を停止する効果” and the “effect of suppressing edema” value [1] is listed as “浮腫を抑制する効果”.
With `O=C(CC(C(=O)O)c1c[nH]c2cc(F)ccc12)c1ccc(F)cc1F` (centres unmarked) [本件化合物#1, 4−(2,4−ジフルオロフェニル)−2−(6−フルオロ−1H−インドール−3−イル)−4−オキソブタン酸] the erythropoietin expression level [2] was “増加する”.
With `O=C(CC(C(=O)O)c1c[nH]c2cccc(Cl)c12)c1ccc(F)cc1F` (centres unmarked) [本件化合物#5, 2−(4−クロロ−1H−インドール−3−イル)−4−(2,4−ジフルオロフェニル)−4−オキソブタン酸] the erythropoietin expression level [2] was “増加する”.
For `CCCCS(=N)(=O)CC[C@H](N)C(=O)O` (stereo partly drawn) [BSO, L-Buthionine sulphoximine], the cell viability ([3]; BSO 100 μM (glutathione synthesis inhibitor) alone, Fig. 1A) was “細胞生存率が低下する”.
In the case of `O=C(CC(C(=O)O)c1c[nH]c2ccccc12)c1ccc(F)cc1` (centres unmarked) [比較例化合物#4, 4−(4−フルオロフェニル)−2−(1H−インドール−3−イル)−4−オキソ−ブタン酸], the “effect of enhancing erythropoietin expression / promoting erythropoietin production” value [4] is given as “エリスロポエチン産生の促進効果”, the “concentration at which the cytotoxicity level is lowered” value [5] is given as no less than 10 µM and the minimal effective concentration [3] is given as no less than 10 µM. The “therapeutic effect on mitochondrial disease” value [6] was “ミトコンドリア病の治療効果”.
For `Cc1ccc2[nH]cc(C(CC(=O)c3ccc(F)cc3F)C(=O)O)c2c1` (centres unmarked) [本件化合物#6, 4−(2,4−ジフルオロフェニル)−2−(5−メチル−1H−インドール−3−イル)−4−オキソブタン酸], the “concentration at which the cytotoxicity level is lowered” value [5] was no less than 1 µM, the minimal effective concentration [3] was no less than 1 µM and the erythropoietin expression level [2] was “増加する”.
In the case of `O=C(CC(C(=O)O)c1c[nH]c2ccccc12)c1ccc(F)cc1F` (centres unmarked) [4−(2,4−ジフルオロフェニル)−2−(1H−インドール−3−イル)−4−オキソ−ブタン酸], the “effect of enhancing erythropoietin expression / promoting erythropoietin production” value [4] is listed as “エリスロポエチン発現増強効果” and the “therapeutic effect on mitochondrial disease” value [6] is listed as “ミトコンドリア病の治療効果”.
